Consider one compound from patent US20240207369A1, “In Vitro Drugs from Prodrugs and Use Thereof” (Brandenburgische Tehnische Universitat Cottbus-Senftenberg, priority 2021, published 2024).

For this test, the system named is human thrombocytes (platelets). The test can be described thus: ADP-induced platelet aggregation in whole blood, impedance aggregometry (Multiplate Analyzer). It counts as cell-based. Conditions: ADP 10 μM final; two-minute pre-incubation of the metabolite in blood of an apparently healthy subject; final metabolite concentration 0.31 mg per 1 mL; approx. 73% purity; FIG. 2. How it is done: Example of embodiment of the effect of a metabolite produced via peroxygenase on human platelets (blood platelets).
The metabolite is present as a powder (approx. 4 mg) in a dark container and is stored in a freezer at at least −80° C. until the solution is prepared. On the day of use, the drug is dissolved in 500 μl of a suitable sterile solvent (here: phosphate-buffered saline, PBS). Powder and solvent are mixed rigorously. The complete dissolution of the powder is to be visually checked. The mixture is stored on ice or at approx. 0° C. until use.
To test the functionality of the agent, the aggregation of human thrombocytes (platelets) in whole blood is determined by impedance aggregometry (Paniccia, R.; Antonucci, E.; Maggini, N.; Romano, E.; Gori, A. M.; Marcucci, R.; Prisco, D.; Abbate, R. Assessment of Platelet Function on Whole Blood by Multiple Electrode Aggregometry in High-Risk Patients with Coronary Artery Disease Receiving Antiplatelet Therapy. American journal of clinical pathology 2009, 131, 834-42, doi:10.1309/AJCPTE3K1SGAPOIZ). For the test, approximately 5 ml of fresh whole blood is collected from a visible vein at the elbow (cubital vein) of a subject by an appropriately trained person using appropriate sterile blood collection equipment. The blood is collected into a collection vessel designed for this purpose (e.g. Sarstedt Monovette, Sarstedt, Numbrecht, Germany). […]

Consider `COC(=O)[C@H](c1ccccc1Cl)N1CCC(S)C(=CC(=O)O)C1` (stereo partly drawn) [metabolite, 2-(1-((S)-1-(2-chlorophenyl)-2-methoxy-2-oxoethyl)-4-mercaptopiperidin-3-ylidene)acetic acid], for which the ADP-induced platelet aggregation entry was “reduction of ADP-induced platelet aggregation”.
